ChEMBL document CHEMBL3425471, “Design, synthesis and biological evaluation of novel pyrazoline-containing derivatives as potential tubulin assembling inhibitors” (Eur J Med Chem, 2015)
Blank lines part the entries; values can stand above or below the compound they belong to.

Assays:
Tubulin = Tubulin (Bos taurus, UniProt Q6B856+Q862L2+Q862F3); test: Inhibition of bovine brain tubulin polymerization after 20 mins by turbidimetric analysis
A549 = test: cells; conditions: Homo sapiens, A549, 24 h
Description: Antiproliferative activity against human A549 cells assessed as reduction in cell viability after 24 hrs by MTT assay

MCF7 = test: cells; conditions: Homo sapiens, MCF7, 24 h
Description: Antiproliferative activity against human MCF7 cells assessed as reduction in cell viability after 24 hrs by MTT assay

HepG2 [1] = test: cells; conditions: Homo sapiens, HepG2, 24 h
Description: Antiproliferative activity against human HepG2 cells assessed as reduction in cell viability after 24 hrs by MTT assay

HepG2 [2] = test: Induction of apoptosis in human HepG2 cells assessed as viable cells at 0.01 uM after 24 hrs by AnnexinV-FITC/PI staining based flow cytometry (reference value: 93.0%); assay type: functional; conditions: HepG2, 24 h, read-out: Activity
HepG2 [3] = test: Induction of apoptosis in human HepG2 cells assessed as early apoptotic cells at 0.01 uM after 24 hrs by AnnexinV-FITC/PI staining based flow cytometry (reference value: 3.89%); assay type: functional
HepG2 [4] = test: Induction of apoptosis in human HepG2 cells assessed as late apoptotic cells at 0.01 uM after 24 hrs by AnnexinV-FITC/PI staining based flow cytometry (reference value: 1.49%); assay type: functional
HepG2 [5] = test: Induction of apoptosis in human HepG2 cells assessed as necrotic cells at 0.01 uM after 24 hrs by AnnexinV-FITC/PI staining based flow cytometry (reference value: 1.63%); assay type: functional
HepG2 [6] = test: Induction of apoptosis in human HepG2 cells assessed as viable cells at 0.03 uM after 24 hrs by AnnexinV-FITC/PI staining based flow cytometry (reference value: 93.0%); assay type: functional; conditions: HepG2, 24 h, read-out: Activity
HepG2 [7] = test: Induction of apoptosis in human HepG2 cells assessed as early apoptotic cells at 0.03 uM after 24 hrs by AnnexinV-FITC/PI staining based flow cytometry (reference value: 3.89%); assay type: functional
HepG2 [8] = test: Induction of apoptosis in human HepG2 cells assessed as late apoptotic cells at 0.03 uM after 24 hrs by AnnexinV-FITC/PI staining based flow cytometry (reference value: 1.49%); assay type: functional
HepG2 [9] = test: Induction of apoptosis in human HepG2 cells assessed as necrotic cells at 0.03 uM after 24 hrs by AnnexinV-FITC/PI staining based flow cytometry (reference value: 1.63%); assay type: functional
HepG2 [10] = test: Induction of apoptosis in human HepG2 cells assessed as viable cells at 0.05 uM after 24 hrs by AnnexinV-FITC/PI staining based flow cytometry (reference value: 93.0%); assay type: functional; conditions: HepG2, 24 h, read-out: Activity
HepG2 [11] = test: Induction of apoptosis in human HepG2 cells assessed as early apoptotic cells at 0.05 uM after 24 hrs by AnnexinV-FITC/PI staining based flow cytometry (reference value: 3.89%); assay type: functional
HepG2 [12] = test: Induction of apoptosis in human HepG2 cells assessed as late apoptotic cells at 0.05 uM after 24 hrs by AnnexinV-FITC/PI staining based flow cytometry (reference value: 1.49%); assay type: functional
HepG2 [13] = test: Induction of apoptosis in human HepG2 cells assessed as necrotic cells at 0.05 uM after 24 hrs by AnnexinV-FITC/PI staining based flow cytometry (reference value: 1.63%); assay type: functional
HepG2 [14] = test: Cell cycle arrest in human HepG2 cells assessed as accumulation of cells at G1 phase of cell cycle at 0.01 uM after 48 hrs by propidium iodide staining based flow cytometry (reference value: 75.2%); assay type: functional
HepG2 [15] = test: Cell cycle arrest in human HepG2 cells assessed as accumulation of cells at G2 phase of cell cycle at 0.01 uM after 48 hrs by propidium iodide staining based flow cytometry (reference value: 5.09%); assay type: functional
HepG2 [16] = test: Cell cycle arrest in human HepG2 cells assessed as accumulation of cells at S phase of cell cycle at 0.01 uM after 48 hrs by propidium iodide staining based flow cytometry (reference value: 19.71%); assay type: functional
HepG2 [17] = test: Cell cycle arrest in human HepG2 cells assessed as accumulation of cells at G1 phase of cell cycle at 0.03 uM after 48 hrs by propidium iodide staining based flow cytometry (reference value: 75.2%); assay type: functional
HepG2 [18] = test: Cell cycle arrest in human HepG2 cells assessed as accumulation of cells at G2 phase of cell cycle at 0.03 uM after 48 hrs by propidium iodide staining based flow cytometry (reference value: 5.09%); assay type: functional
HepG2 [19] = test: Cell cycle arrest in human HepG2 cells assessed as accumulation of cells at S phase of cell cycle at 0.03 uM after 48 hrs by propidium iodide staining based flow cytometry (reference value: 19.71%); assay type: functional
HepG2 [20] = test: Cell cycle arrest in human HepG2 cells assessed as accumulation of cells at G1 phase of cell cycle at 0.05 uM after 48 hrs by propidium iodide staining based flow cytometry (reference value: 75.2%); assay type: functional
HepG2 [21] = test: Cell cycle arrest in human HepG2 cells assessed as accumulation of cells at G2 phase of cell cycle at 0.05 uM after 48 hrs by propidium iodide staining based flow cytometry (reference value: 5.09%); assay type: functional
HepG2 [22] = test: Cell cycle arrest in human HepG2 cells assessed as accumulation of cells at S phase of cell cycle at 0.05 uM after 48 hrs by propidium iodide staining based flow cytometry (reference value: 19.71%); assay type: functional

Structure (SMILES): COc1cccc(C2=NN(C(=O)c3ccc(Br)cc3)C(c3ccc4c(c3)OCO4)C2)c1 (configuration not stated)
IC50 (Tubulin): > 40 µM
IC50 (A549): > 10 µM
IC50 (MCF7): > 10 µM
IC50 (HepG2 [1]): > 10 µM

Structure (SMILES): COc1ccc(C2=NN(C(=O)c3ccc(F)cc3)C(c3ccc4c(c3)OCO4)C2)cc1 (configuration not stated)
IC50 (Tubulin): 7.69 µM
IC50 (A549): 1.08 µM
IC50 (MCF7): 1.77 µM
IC50 (HepG2 [1]): 1.86 µM

Structure (SMILES): O=C(c1ccc(Br)cc1)N1N=C(c2ccc(Cl)cc2)CC1c1ccc2c(c1)OCO2 (configuration not stated)
IC50 (Tubulin): > 40 µM
IC50 (A549): > 10 µM
IC50 (MCF7): > 10 µM
IC50 (HepG2 [1]): > 10 µM

Structure (SMILES): O=C(c1ccc(Br)cc1)N1N=C(c2ccc(F)cc2)CC1c1ccc2c(c1)OCO2 (configuration not stated)
IC50 (Tubulin): > 40 µM
IC50 (A549): 2.45 µM
IC50 (MCF7): 5.11 µM
IC50 (HepG2 [1]): > 10 µM

Structure (SMILES): Cc1ccc(C2=NN(C(=O)c3ccc(Br)cc3)C(c3ccc4c(c3)OCO4)C2)cc1 (configuration not stated)
IC50 (Tubulin): > 40 µM
IC50 (A549): > 10 µM
IC50 (MCF7): > 10 µM
IC50 (HepG2 [1]): > 10 µM

Structure (SMILES): COc1ccc(C2=NN(C(=O)c3ccc(Br)cc3)C(c3ccc4c(c3)OCO4)C2)cc1 (configuration not stated)
IC50 (Tubulin): > 40 µM
IC50 (A549): > 10 µM
IC50 (MCF7): > 10 µM
IC50 (HepG2 [1]): > 10 µM

Structure (SMILES): COc1ccccc1C1=NN(C(=O)c2ccc(Br)cc2)C(c2ccc3c(c2)OCO3)C1 (configuration not stated)
IC50 (Tubulin): > 40 µM
IC50 (A549): > 10 µM
IC50 (MCF7): > 10 µM
IC50 (HepG2 [1]): > 10 µM

Structure (SMILES): COc1ccc(/C=C\c2cc(OC)c(OC)c(OC)c2)cc1O [COMBRETASTATIN A4]
IC50 (A549): 0.14 µM
IC50 (HepG2 [1]): 0.17 µM

Further lines, with some results ahead:

IC50 (Tubulin): 19.45 µM
IC50 (A549): 4.21 µM
IC50 (MCF7): 6.37 µM
IC50 (HepG2 [1]): 5.25 µM
Structure (SMILES): COc1cc(C(=O)N2N=C(c3ccc(Br)cc3)CC2c2ccc3c(c2)OCO3)cc(OC)c1OC (configuration not stated)

IC50 (Tubulin): > 40 µM
IC50 (A549): 7.11 µM
IC50 (MCF7): 9.23 µM
IC50 (HepG2 [1]): 7.15 µM
Structure (SMILES): COc1cc(C(=O)N2N=C(c3cccc(Cl)c3)CC2c2ccc3c(c2)OCO3)cc(OC)c1OC (configuration not stated)

IC50 (Tubulin): 2.09 µM
IC50 (A549): 0.78 µM
IC50 (MCF7): 0.22 µM
IC50 (HepG2 [1]): 1.06 µM
Structure (SMILES): COc1cc(C2=NN(C(=O)c3ccc(F)cc3)C(c3ccc4c(c3)OCO4)C2)cc(OC)c1OC (configuration not stated)

IC50 (Tubulin): 15.73 µM
IC50 (A549): 2.73 µM
IC50 (MCF7): 3.56 µM
IC50 (HepG2 [1]): 3.77 µM
Structure (SMILES): COc1ccc(C2=NN(C(=O)c3ccc(OC)c(OC)c3)C(c3ccc4c(c3)OCO4)C2)cc1 (configuration not stated)

IC50 (Tubulin): 11.37 µM
IC50 (A549): 2.23 µM
IC50 (MCF7): 3.26 µM
IC50 (HepG2 [1]): 3.15 µM
Structure (SMILES): COc1cc(C(=O)N2N=C(c3cc(OC)c(OC)c(OC)c3)CC2c2ccc3c(c2)OCO3)cc(OC)c1OC (configuration not stated)

IC50 (Tubulin): 1.88 µM
IC50 (A549): 0.07 µM
IC50 (MCF7): 0.05 µM
IC50 (HepG2 [1]): 0.03 µM
Structure (SMILES): COc1ccc(C2=NN(C(=O)c3cc(OC)c(OC)c(OC)c3)C(c3ccc4c(c3)OCO4)C2)cc1 (configuration not stated)
viability at 0.01 µM (HepG2 [2]): 91.2%
Activity (HepG2 [3]): 5.12%
Activity (HepG2 [4]): 1.92%
Activity (HepG2 [5]): 1.75%
viability at 0.03 µM (HepG2 [6]): 85%
Activity (HepG2 [7]): 8.72%
Activity (HepG2 [8]): 2.52%
Activity (HepG2 [9]): 3.76%
viability at 0.05 µM (HepG2 [10]): 76.4%
Activity (HepG2 [11]): 13.4%
Activity (HepG2 [12]): 5.34%
Activity (HepG2 [13]): 4.86%
Activity (HepG2 [14]): 68.96%
Activity (HepG2 [15]): 5.99%
Activity (HepG2 [16]): 25.06%
Activity (HepG2 [17]): 35.62%
Activity (HepG2 [18]): 50.11%
Activity (HepG2 [19]): 14.28%
Activity (HepG2 [20]): 34.65%
Activity (HepG2 [21]): 52.2%
Activity (HepG2 [22]): 13.14%

IC50 (Tubulin): 2.13 µM
IC50 (A549): 0.08 µM
IC50 (MCF7): 0.07 µM
IC50 (HepG2 [1]): 0.06 µM
Structure (SMILES): COc1ccc(C2=NN(C(=O)c3cc(OC)c(OC)c(OC)c3)C(c3ccc4c(c3)OCO4)C2)cc1OC (configuration not stated)

IC50 (Tubulin): 2.19 µM
IC50 (A549): 0.09 µM
IC50 (MCF7): 0.17 µM
IC50 (HepG2 [1]): 0.07 µM
Structure (SMILES): CCOc1ccc(C2=NN(C(=O)c3cc(OC)c(OC)c(OC)c3)C(c3ccc4c(c3)OCO4)C2)cc1 (configuration not stated)

IC50 (Tubulin): 25.79 µM
IC50 (A549): 4.08 µM
IC50 (MCF7): 6.41 µM
IC50 (HepG2 [1]): 5.05 µM
Structure (SMILES): COc1ccc(C(=O)N2N=C(c3ccc(OC)cc3)CC2c2ccc3c(c2)OCO3)cc1 (configuration not stated)
